In US8759326B2, “Drug combinations containing PDE4 inhibitors and NSAIDs” (Boehringer Ingelheim International GmbH, priority 2009, dated 2014):

Assays:
[1] = test system: male Wistar rats; experiment: Experiment 4: diarrhoea and mesentery histopathology in rats, roflumilast with or without SC-560 or lumiracoxib; assay type: in vivo, rat; conditions: p.o. four days, roflumilast 10 mg/kg at 1300, SC-560 or lumiracoxib 2 mg/kg at 0800 and 1700, 95 hours after t0; for Diarrhoea: animals affected out of animals; for Mesentery: Proliferation of fibroblasts / Mesentery: multifocal perivascular mononuclear infiltration (=inflammation parameter): animals affected out of animals examined
Experimental: (§1) For pharmacokinetic analysis (determining the plasma levels of the substances) on day 4 one rat from each group was used; these rats were no longer available for other parameters under investigation.
(§2) At the end of the experiment (95 hours after t0 (=the time of the first administration on day 1, 0800 hours)) the rats from the individual groups were examined phenotypically and histopathologically for the presence of multifocal perivascular mononuclear infiltration (=inflammation parameter) in the mesentery and for the proliferation of fibroblasts in the mesentery. In addition, the occurrence of diarrhoea in the rats from the different groups was noted.

[2] = test system: male Wistar rats; experiment: Experiment 3: weight loss, leukocytosis and neutrophilia in rats, roflumilast with or without SC-560 or lumiracoxib; assay type: in vivo, rat
[3] = test system: male Wistar rats; experiment: Experiment 1: weight loss, leukocytosis and neutrophilia in rats, roflumilast with or without diclofenac
Experimental: For pharmacokinetic analysis (determining the plasma levels of the substances) on day 4 one rate from each group was used; these rats were no longer available for other parameters under investigation.
The average±standard deviation of the body weights at time t0 was 355±17 g.
At the end of the experiment (95 hours after t0 (=the time of the first administration on day 1, 0800)) the proportion of white blood cells (×1000 cells/μl blood, FIG. 1B, left-hand Figure) and the proportion of neutrophils (in % of white blood cells, FIG. 1B, right-hand Figure) were determined from the blood of 4 or 5 of the rats from the individual groups.

[4] = test system: male Wistar rats; experiment: Experiment 2: diarrhoea and mesentery histopathology in rats, roflumilast with or without diclofenac; conditions: roflumilast 10 mg/kg p.o. daily; six rats per group; between day 4 and day 5
Experimental: as §1, §2

Structure (SMILES) | Diarrhoea [1] | protective effect on roflumilast-mediated weight loss, leukocytosis and neutrophilia ([2]; SC-560 2 mg/kg p.o. at 0800 and 1700 co-administered with roflumilast 10 mg/kg, four days) | parameters measured after the administration of the NSAID alone, compared with control ([3]; diclofenac 1 mg/kg p.o. at 0800 and 1700, four days) | Mesentery: Proliferation of fibroblasts [1] | Mesentery: multifocal perivascular mononuclear infiltration (=inflammation parameter) [1] | parameters measured after the administration of the NSAID alone, compared with control ([2]; 2 mg/kg p.o. at 0800 and 1700, four days) | PDE4 inhibitor-mediated side effects such as weight loss, leukocytosis, neutrophilia and diarrhoea ([2]; FIG. 2A, 2B, p.o. four days, roflumilast 10 mg/kg, lumiracoxib 2 mg/kg twice daily) | death of rats [4] | death of rats ([3]; roflumilast 10 mg/kg p.o. daily, six rats per group, between day 4 and day 5)
COc1ccc(-n2nc(C(F)(F)F)cc2-c2ccc(Cl)cc2)cc1 [SC-560] | 0/6 | absolutely no protective effect |  |  |  |  |  |  | 
O=C(O)Cc1ccccc1Nc1c(Cl)cccc1Cl [diclofenac] |  |  | very similar to the control groups |  |  |  |  |  | 
Cc1ccc(Nc2c(F)cccc2Cl)c(CC(=O)O)c1 [lumiracoxib] | 0/6 |  |  | 0/5 | 0/5 | very similar to the control groups |  |  | 
O=C(Nc1c(Cl)cncc1Cl)c1ccc(OC(F)F)c(OCC2CC2)c1 [roflumilast] | 2/6 |  |  | 5/5 | 5/5 |  | observed | one rat | one rat
